From the supplement of paper PMC3974653
Counter-ions that a name gives are not always drawn.

System: MTT (mouse pheochromocytoma)
Assay: IC50 of cell viability (ATP content)
Settings: (24 or 48 h)
Method in brief: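 Library compounds were tested at 8 final concentrations (0.5 nM to 46 µM) on MTT mouse pheochromocytoma cells for 24 or 48 hrs, with readout by CellTiter-Glo ATP luminescence. Signals were normalised with positive-control wells at 100% and DMSO wells at 0%. IC50 values were obtained by a four-parameter logistic fit.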

Row | SMILES | IC50 of cell viability [µM]
1 | CC(C)(C)NC[C@H](O)c1ccc(O)cc1Cl [MELUADRINE TARTRATE] | > 46
2 | CC12CC3CC(C)(C1)CC(N)(C3)C2 [MEMANTINE] | > 46
3 | C\C1=C\C(=O)C2=C(C=CC=C2)C1=O [MENADIONE] | > 46
4 | CC1CCC(C(C)C)C(O)C1 (stereo unspecified) [MENTHOL] | > 46
5 | CC1CCC(C(C)C)C(=O)C1 (stereo unspecified) [MENTHONE] | > 46
6 | CC1CCC(C(C)C)C(OC(=O)c2ccccc2O)C1 (stereo unspecified) [MENTHYL SALICYLATE] | > 46
7 | CNc1ccc(C(=O)CC(O)CCC(C)C2OC(=O)CC(O)CC(=O)CC(O)CC(O)CC(O)CC(O)CC3(O)CC(O)C(C(=O)OC)C(CC(O[C@@H]4OC(C)C(O)C(N)C4O)/C=C/C=C/C=C/C=C/C=C/C=C/C=C/C2C)O3)cc1 (stereo partly specified) [MEPARTRICIN] | > 46
8 | Cc1ccccc1OCC(O)CO (stereo unspecified) [MEPHENESIN] | > 46
9 | CC[C@@]1(c2ccccc2)NC(=O)N(C)C1=O [MEPHENYTOIN] | > 46
10 | Cc1cccc(C)c1NC(=O)C1CCCCN1C.Cl (stereo unspecified) [MEPIVACAINE HYDROCHLORIDE] | > 46
11 | COc1ccc(CN(CCN(C)C)c2ccccn2)cc1 [MEPYRAMINE] | > 46
12 | COc1ccc(O)cc1 [MEQUINOL] | > 46
13 | O=[S+]([O-])(O)CCS [MESNA] | > 46
14 | CN1CCCCC1CCN1c2ccccc2Sc2ccc(S(C)=O)cc21 (stereo unspecified) [MESORIDAZINE] | > 46
15 | C#C[C@]1(O)CC[C@H]2[C@@H]3CCc4cc(OC)ccc4[C@H]3CC[C@@]21C [MESTRANOL] | > 46
16 | CN1C[C@@H](NS(=O)(=O)N(C)C)C[C@@H]2c3cccc4c3c(cn4C)C[C@H]21 [MESULERGINE] | > 46
17 | CC(=O)Nc1cccc(O)c1 [METACETAMOL] | > 46
18 | C=NC(C(=O)NC1C(=O)N2C1SC(C)(C)C2C(=O)[O-])c1ccccc1.[Na+] (stereo unspecified) [METAMPICILLIN SODIUM] | > 46
19 | Cc1cc(C)cc(OCC2CNC(=O)O2)c1 (stereo unspecified) [METAXALONE] | > 46
20 | CCCCCCC(=O)O[C@H]1CC[C@H]2[C@@H]3CCC4CC(=O)\C=C(C)/[C@]4(C)[C@H]3CC[C@]12C (stereo partly specified) [METENOLONE ENANTHATE] | > 46
21 | CN(C)CCN(Cc1cccs1)c1ccccn1.Cl [METHAPYRILENE HYDROCHLORIDE] | > 46
22 | C=C1Nc2ccccc2C(=O)N1c1ccccc1C [METHAQUALONE] | > 46
23 | CCC1(CC)C(=O)NC(=O)N(C)C1=O [METHARBITAL] | > 46
24 | COc1cccc(OC)c1C(=O)NC1C(=O)N2C1SC(C)(C)C2C(=O)[O-].[Na+] (stereo unspecified) [METHICILLIN SODIUM] | > 46
25 | CSCCC(N)C(=O)O (stereo unspecified) [METHIONINE] | > 46
26 | CSc1ccc2c(c1)C(N1CCN(C)CC1)Cc1ccccc1S2 (stereo unspecified) [METHIOTHEPIN] | > 46

Row | SMILES | IC50 of cell viability [µM]
27 | COc1ccc(OC)c(C(O)C(C)N)c1.Cl (stereo unspecified) [METHOXAMINE HYDROCHLORIDE] | > 46
28 | COc1ccc(CCN(C)CCCC(C#N)(c2cc(OC)c(OC)c(OC)c2)C(C)C)cc1OC (stereo unspecified) [METHOXY VERAPAMIL] | > 46
29 | COC(F)(F)C(Cl)Cl [METHOXYFLURANE] | > 46
30 | CN1C(CCl)Nc2cc(Cl)c([S+](N)(=O)[O-])cc2[S+]1(=O)[O-] (stereo unspecified) [METHYCLOTHIAZIDE] | > 46
31 | COC(=O)CCC(=O)CN [METHYL AMINOLEVULINATE HYDROCHLORIDE] | > 46
32 | COC(=O)c1cccnc1 [METHYL NICOTINATE] | > 46
33 | C=CCCCCCCCCC(=O)OC [METHYL UNDECENOATE] | > 46
34 | CC[N+](C)(CC)CCOC(=O)C(O)(c1ccccc1)c1ccccc1 [METHYLBENACTYZIUM BROMIDE] | > 46
35 | Cn1sc(Cl)cc1=O [METHYLCHLOROISOTHIAZOLINONE] | > 46
36 | CC[C@@H](CO)NC(=O)[C@H]/1CN(C)[C@@H]2CC3=C[NH]C4=C3C(=CC=C4)\C2=C1 [METHYLERGOMETRINE] | > 46
37 | C[S+](C)CC[C@H](N)C(=O)O [METHYLMETHIONINE SULFONIUM CHLORIDE] | > 46
38 | C[C@]1(O)CC[C@H]2[C@@H]3CCC/4=C/C(=O)CC[C@]4(C)[C@H]3CC[C@]12C [METHYLTESTOSTERONE] | > 46
39 | C\C1=C\C(=O)NC(=S)N1 [METHYLTHIOURACIL] | > 46
40 | CC[C@@H](CO)NC(=O)[C@H]\1CN(C)[C@@H]2CC3=C[N](C)C4=CC=CC(=C34)/C2=C1 [METHYSERGIDE] | > 46
41 | CO[C@H]1[C@@H](O)CC(O[C@@H]1C)OC2[C@@H](O)CC(O[C@@H]2C)OC3[C@@H](O)C[C@@H](O[C@@H]3C)OC4CC[C@@]5(C)C(CCC6C5CC(O)[C@]7(C)[C@@H](CCC67O)C/8=C/C(=O)OC8)C4 (stereo partly specified) [METILDIGOXIN] | > 46
42 | CN1C(=O)/C(=N\NC(N)=S)c2ccccc21 [METISAZONUM] | > 46
43 | C[N+](C)(C)CCOC(=O)C(O)(c1ccccc1)c1ccccc1 [METOCINII IODIDUM] | > 46
44 | CCN(CC)CCNC(=O)c1cc(Cl)c(N)cc1OC [METOCLOPRAMIDE] | > 46
45 | COc1ccc2cc1Oc1cc3c(cc1OC)CC[N+](C)(C)C3Cc1ccc(cc1)Oc1c(OC)c(OC)cc3c1C(C2)[N+](C)(C)CC3 (stereo unspecified) [METOCURINE IODIDE] | > 46
46 | COC(=O)c1cncn1C(C)c1ccccc1 (stereo unspecified) [METOMIDATE HYDROCHLORIDE] | > 46
47 | COC(=O)C1C2CC3c4[nH]c5cc(OC)ccc5c4CCN3CC2CC(OC)C1OC (stereo unspecified) [METOSERPATE HYDROCHLORIDE] | > 46
48 | Cc1ncc([N+](=O)[O-])n1CCO [METRONIDAZOLE] | > 46
49 | CC1(C)S[C@@H]2[C@H](NC(=O)[C@H](NC(=O)N3CCN([S+](C)(=O)[O-])C3=O)c3ccccc3)C(=O)N2[C@H]1C(=O)O [MEZLOCILLIN SODIUM MONOHYDRATE] | > 46
50 | CC[N+](CC)(CC)CCOc1ccc(/C=C/c2ccccc2)cc1 [MG 624] | > 46
51 | CN1CCN2c3ccccc3Cc3ccccc3C2C1 (stereo unspecified) [MIANSERIN] | > 46
